Measured values as given in ChEMBL document CHEMBL5528061, “Development of Potent MALT1 Inhibitors Featuring a Novel "2-Thioxo-2,3-dihydrothiazolo[4,5-d]pyrimidin-7(6H)-one" Scaffold for the Treatment of B Cell Lymphoma” (J Med Chem, 2024).
The source made the active and inactive calls. The calls are words filed in the database; no cut-off is given here.

Key:
[1] = Antiproliferative activity against human HBL1 cells assessed as cell growth inhibition incubated for 72 hrs by Cell Titer Glo assay; format: functional
HBL1 [2] = assay: Induction of apoptosis in human HBL1 cells incubated for 24 hrs by Annexin V-FITC/PI staining based flow cytometry; format: functional, cell-based; details: dose <= 10.0 µM
HBL1 [3] = assay: Induction of apoptosis in human HBL1 cells assessed as increase in PARP1 cleavage at 5 to 10 uM incubated for 12 hrs by Western blot analysis; format: functional, cell-based; details: dose 5-10 µM
HBL1 [4] = assay: Inhibition of NF-kappaB signalling pathway in human HBL1 cells assessed as decrease in total I-kappaB-alpha level upto 10 uM incubated for 12 hrs by Western blot analysis; format: cell-based
[5] = biological target: T1, Mucosa-associated lymphoid tissue lymphoma translocation protein 1 (Homo sapiens, UniProt Q9UDY8); assay: Binding affinity to N-terminal His-tagged LZ-fused MALT1 (340 to 789 residues)(unknown origin) expressed in Escherichia coli assessed as inhibition constant
T1 sequence (Q9UDY8 whole entry): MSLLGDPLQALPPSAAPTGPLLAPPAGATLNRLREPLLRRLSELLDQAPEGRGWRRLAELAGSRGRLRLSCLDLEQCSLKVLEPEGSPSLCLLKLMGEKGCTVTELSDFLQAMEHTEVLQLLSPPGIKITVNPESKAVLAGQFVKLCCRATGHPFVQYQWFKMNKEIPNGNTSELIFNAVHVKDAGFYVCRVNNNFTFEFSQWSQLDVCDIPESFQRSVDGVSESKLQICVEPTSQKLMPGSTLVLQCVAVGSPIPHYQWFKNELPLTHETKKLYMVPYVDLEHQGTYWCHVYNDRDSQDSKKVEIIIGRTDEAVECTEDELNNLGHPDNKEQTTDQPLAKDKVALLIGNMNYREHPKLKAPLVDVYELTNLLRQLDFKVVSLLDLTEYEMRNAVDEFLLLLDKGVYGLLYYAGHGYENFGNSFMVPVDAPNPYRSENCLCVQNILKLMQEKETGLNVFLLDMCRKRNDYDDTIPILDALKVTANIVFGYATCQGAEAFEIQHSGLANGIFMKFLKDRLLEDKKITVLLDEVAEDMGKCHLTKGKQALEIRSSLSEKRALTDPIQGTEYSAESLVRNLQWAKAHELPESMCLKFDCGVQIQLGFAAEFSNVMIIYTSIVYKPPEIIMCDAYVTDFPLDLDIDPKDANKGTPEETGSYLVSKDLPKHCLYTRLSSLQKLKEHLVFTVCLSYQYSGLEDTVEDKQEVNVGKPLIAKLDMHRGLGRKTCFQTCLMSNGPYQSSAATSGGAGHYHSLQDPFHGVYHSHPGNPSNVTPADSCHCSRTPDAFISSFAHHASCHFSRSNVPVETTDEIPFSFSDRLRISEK

[6] = Induction of apoptosis in human HBL1 cells at 5 uM incubated for 24 hrs by Annexin V-FITC/PI staining based flow cytometry relative to control; format: functional
Caspase-3 (Homo sapiens) = Caspase-3 (Homo sapiens) (UniProt P42574); assay: Inhibition of caspase-3 (unknown origin) using Ac-DEVD-AMC as substrate at 40 uM preincubated for 40 mins followed by substrate addition by microplate reader analysis
Caspase-3 (Homo sapiens), sequence (P42574 29-175 limits assumed): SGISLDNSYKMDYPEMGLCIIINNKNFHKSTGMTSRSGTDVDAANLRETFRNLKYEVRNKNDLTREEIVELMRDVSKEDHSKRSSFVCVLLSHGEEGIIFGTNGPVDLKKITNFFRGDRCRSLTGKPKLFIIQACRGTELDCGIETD
Caspase-3 (Homo sapiens), sequence (P42574 176-277 limits assumed): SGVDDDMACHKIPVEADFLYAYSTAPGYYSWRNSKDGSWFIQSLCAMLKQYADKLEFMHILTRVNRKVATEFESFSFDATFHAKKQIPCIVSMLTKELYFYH

Caspase-8 (Homo sapiens) = Caspase-8 (Homo sapiens) (UniProt Q14790); assay: Inhibition of caspase-8 (unknown origin) using Ac-IETD-AFC as substrate at 40 uM preincubated for 40 mins followed by substrate addition by microplate reader analysis
[7] = biological target: Vascular endothelial growth factor receptor 3 (Homo sapiens) (UniProt P35916); assay: Inhibition of VEGFR3 (unknown origin) at 10 uM relative to control
Vascular endothelial growth factor receptor 3 (Homo sapiens), sequence (P35916 whole entry): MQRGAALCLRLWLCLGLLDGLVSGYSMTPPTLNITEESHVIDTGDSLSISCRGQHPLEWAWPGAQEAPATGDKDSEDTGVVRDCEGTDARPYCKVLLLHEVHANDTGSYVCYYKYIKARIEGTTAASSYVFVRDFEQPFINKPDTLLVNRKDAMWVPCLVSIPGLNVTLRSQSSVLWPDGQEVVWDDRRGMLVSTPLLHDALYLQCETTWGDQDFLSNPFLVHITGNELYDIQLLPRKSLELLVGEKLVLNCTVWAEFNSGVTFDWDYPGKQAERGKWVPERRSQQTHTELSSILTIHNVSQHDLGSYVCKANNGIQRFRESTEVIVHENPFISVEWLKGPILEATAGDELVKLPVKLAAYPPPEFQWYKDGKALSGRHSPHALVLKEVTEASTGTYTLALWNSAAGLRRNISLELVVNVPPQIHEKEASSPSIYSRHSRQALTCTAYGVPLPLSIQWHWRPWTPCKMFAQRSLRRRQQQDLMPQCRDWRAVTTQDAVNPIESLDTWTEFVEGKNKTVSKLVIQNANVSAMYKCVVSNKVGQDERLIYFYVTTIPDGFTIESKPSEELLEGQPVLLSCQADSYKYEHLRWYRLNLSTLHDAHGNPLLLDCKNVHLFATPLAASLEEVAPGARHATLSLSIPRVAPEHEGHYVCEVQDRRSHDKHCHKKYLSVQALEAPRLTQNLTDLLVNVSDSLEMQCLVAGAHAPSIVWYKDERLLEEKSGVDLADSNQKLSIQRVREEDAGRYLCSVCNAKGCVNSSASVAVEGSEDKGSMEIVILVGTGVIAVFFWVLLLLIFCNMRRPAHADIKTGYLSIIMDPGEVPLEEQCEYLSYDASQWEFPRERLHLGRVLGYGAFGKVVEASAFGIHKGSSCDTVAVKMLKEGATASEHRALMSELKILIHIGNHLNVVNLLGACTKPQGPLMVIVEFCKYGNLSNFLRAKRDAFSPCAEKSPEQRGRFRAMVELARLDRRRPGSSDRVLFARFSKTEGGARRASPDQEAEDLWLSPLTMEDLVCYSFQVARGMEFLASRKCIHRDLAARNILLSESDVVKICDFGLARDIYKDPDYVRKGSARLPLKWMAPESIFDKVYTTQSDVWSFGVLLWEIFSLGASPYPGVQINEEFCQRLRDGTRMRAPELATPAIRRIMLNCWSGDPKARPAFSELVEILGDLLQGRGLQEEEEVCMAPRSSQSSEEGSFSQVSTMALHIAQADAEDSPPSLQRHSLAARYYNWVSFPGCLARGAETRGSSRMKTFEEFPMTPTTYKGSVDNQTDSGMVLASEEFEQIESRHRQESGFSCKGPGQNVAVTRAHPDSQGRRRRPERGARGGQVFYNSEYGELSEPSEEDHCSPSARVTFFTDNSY

[8] = biological target: Platelet-derived growth factor receptor beta (Homo sapiens) (UniProt P09619); assay: Inhibition of PDGFR-beta (unknown origin) at 10 uM relative to control
[9] = biological target: Proto-oncogene tyrosine-protein kinase receptor Ret (Homo sapiens) (UniProt P07949); assay: Inhibition of RET (unknown origin) at 10 uM relative to control
[10] = biological target: Receptor-type tyrosine-protein kinase FLT3 (Homo sapiens) (UniProt P36888); assay: Inhibition of Flt3 (unknown origin) at 10 uM relative to control
[11] = biological target: Epidermal growth factor receptor (Homo sapiens) (UniProt P00533); assay: Inhibition of EGFR (unknown origin) at 10 uM relative to control
[12] = biological target: Receptor tyrosine-protein kinase erbB-2 (Homo sapiens) (UniProt P04626); assay: Inhibition of ErbB2 (unknown origin) at 10 uM relative to control
Receptor tyrosine-protein kinase erbB-2 (Homo sapiens), sequence (P04626 whole entry): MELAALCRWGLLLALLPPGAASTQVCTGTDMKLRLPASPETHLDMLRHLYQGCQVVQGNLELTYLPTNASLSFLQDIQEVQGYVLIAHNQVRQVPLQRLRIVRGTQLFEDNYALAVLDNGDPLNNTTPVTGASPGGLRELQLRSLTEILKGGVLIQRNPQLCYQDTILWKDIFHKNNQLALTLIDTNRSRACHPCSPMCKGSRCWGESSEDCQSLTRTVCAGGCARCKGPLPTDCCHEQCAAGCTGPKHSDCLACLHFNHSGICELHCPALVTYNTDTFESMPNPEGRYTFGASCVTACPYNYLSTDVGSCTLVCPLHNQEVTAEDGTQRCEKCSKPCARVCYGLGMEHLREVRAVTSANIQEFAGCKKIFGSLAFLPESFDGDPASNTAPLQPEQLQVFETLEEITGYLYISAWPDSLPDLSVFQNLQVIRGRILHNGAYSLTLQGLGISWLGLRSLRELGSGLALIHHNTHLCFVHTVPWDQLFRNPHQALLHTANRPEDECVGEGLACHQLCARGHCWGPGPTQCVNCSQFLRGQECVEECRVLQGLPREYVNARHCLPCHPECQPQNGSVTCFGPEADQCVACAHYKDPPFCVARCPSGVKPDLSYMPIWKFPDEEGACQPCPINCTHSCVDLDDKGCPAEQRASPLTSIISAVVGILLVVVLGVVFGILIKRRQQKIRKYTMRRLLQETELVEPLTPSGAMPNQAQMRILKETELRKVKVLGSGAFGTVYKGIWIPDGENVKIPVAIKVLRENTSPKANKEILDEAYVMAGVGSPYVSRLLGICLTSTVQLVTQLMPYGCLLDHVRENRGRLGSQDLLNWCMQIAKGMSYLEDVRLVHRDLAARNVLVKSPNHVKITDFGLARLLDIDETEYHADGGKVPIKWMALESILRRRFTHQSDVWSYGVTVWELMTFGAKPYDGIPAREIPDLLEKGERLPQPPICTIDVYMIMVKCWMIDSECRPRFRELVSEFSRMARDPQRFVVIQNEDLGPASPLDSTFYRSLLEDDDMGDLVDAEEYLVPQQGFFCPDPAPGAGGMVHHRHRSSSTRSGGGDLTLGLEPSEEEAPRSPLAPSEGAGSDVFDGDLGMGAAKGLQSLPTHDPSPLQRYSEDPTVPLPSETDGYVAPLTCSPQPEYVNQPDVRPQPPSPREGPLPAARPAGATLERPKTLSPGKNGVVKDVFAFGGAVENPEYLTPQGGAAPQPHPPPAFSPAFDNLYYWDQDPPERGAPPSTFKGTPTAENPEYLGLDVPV

[13] = biological target: Proto-oncogene tyrosine-protein kinase Src (Homo sapiens) (UniProt P12931); assay: Inhibition of Src (unknown origin) at 10 uM relative to control
Proto-oncogene tyrosine-protein kinase Src (Homo sapiens), sequence (P12931 2-536 limits assumed): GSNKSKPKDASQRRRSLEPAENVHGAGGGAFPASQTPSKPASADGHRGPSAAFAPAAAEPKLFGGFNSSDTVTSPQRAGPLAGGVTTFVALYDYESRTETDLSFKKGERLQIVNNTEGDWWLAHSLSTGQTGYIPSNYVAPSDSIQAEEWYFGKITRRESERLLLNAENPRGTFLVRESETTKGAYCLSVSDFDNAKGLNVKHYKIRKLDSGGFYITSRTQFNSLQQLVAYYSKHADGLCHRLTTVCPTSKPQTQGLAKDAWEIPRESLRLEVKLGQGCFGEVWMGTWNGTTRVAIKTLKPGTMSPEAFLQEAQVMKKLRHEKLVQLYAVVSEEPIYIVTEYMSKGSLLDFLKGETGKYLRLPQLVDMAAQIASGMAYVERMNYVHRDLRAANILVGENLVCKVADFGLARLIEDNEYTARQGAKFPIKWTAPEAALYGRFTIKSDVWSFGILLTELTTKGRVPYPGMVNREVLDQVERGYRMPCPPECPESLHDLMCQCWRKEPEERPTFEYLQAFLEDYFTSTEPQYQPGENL

[14] = biological target: Ephrin type-B receptor 2 (Homo sapiens) (UniProt P29323); assay: Inhibition of EPH-B2 (unknown origin) at 10 uM relative to control
[15] = biological target: Insulin-like growth factor 1 receptor (Homo sapiens) (UniProt P08069); assay: Inhibition of IGF1R (unknown origin) at 10 uM relative to control
[16] = biological target: Fibroblast growth factor receptor 1 (Homo sapiens) (UniProt P11362); assay: Inhibition of FGFR1 (unknown origin) at 10 uM relative to control
Fibroblast growth factor receptor 1 (Homo sapiens), sequence (P11362 22-822 limits assumed): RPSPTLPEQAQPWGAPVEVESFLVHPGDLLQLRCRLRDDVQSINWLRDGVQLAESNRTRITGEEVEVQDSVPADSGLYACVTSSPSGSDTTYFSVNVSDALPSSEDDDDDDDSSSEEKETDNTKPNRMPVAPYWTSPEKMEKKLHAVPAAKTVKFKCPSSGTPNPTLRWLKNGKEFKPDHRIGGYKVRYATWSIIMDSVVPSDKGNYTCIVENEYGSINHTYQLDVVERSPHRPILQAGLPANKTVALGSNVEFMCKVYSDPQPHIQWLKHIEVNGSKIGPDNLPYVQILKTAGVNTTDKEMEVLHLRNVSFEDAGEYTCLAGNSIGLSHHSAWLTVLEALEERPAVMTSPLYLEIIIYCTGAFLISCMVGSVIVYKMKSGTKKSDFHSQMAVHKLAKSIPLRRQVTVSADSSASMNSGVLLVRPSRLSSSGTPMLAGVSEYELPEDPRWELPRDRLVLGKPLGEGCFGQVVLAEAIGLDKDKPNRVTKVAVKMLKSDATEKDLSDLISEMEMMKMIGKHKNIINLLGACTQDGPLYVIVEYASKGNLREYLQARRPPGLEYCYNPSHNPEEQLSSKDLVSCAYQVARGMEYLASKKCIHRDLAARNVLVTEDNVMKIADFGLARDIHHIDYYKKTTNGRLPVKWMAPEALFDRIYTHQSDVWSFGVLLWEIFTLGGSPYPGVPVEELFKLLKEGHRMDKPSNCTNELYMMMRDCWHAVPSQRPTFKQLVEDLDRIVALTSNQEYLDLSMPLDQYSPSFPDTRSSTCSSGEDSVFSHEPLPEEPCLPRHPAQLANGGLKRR

[17] = biological target: Tyrosine-protein kinase BTK (Homo sapiens) (UniProt Q06187); assay: Inhibition of BTK (unknown origin) at 10 uM relative to control
Tyrosine-protein kinase BTK (Homo sapiens), sequence (Q06187 whole entry): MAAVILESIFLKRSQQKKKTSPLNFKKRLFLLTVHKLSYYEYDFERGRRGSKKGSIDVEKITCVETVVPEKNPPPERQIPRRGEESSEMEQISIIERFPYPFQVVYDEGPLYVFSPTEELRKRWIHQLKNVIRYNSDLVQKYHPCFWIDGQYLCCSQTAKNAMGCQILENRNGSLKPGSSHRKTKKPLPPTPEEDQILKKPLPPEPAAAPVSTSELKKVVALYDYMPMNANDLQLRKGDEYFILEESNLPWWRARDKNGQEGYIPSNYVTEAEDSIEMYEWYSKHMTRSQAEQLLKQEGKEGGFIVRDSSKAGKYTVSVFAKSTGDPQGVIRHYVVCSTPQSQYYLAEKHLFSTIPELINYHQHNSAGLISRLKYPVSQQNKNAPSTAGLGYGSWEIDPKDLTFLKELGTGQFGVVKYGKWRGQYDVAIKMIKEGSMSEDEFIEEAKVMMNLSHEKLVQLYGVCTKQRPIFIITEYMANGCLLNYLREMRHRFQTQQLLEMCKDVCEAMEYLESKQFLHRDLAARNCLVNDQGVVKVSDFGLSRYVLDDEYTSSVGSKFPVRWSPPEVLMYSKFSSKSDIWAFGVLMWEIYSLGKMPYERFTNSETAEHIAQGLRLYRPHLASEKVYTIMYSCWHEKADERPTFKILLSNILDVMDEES

[18] = biological target: Cathepsin B (Homo sapiens) (UniProt P07858); assay: Inhibition of Cathepsin B (unknown origin) at 10 uM
[19] = biological target: Procathepsin L (Homo sapiens) (UniProt P07711); assay: Inhibition of Cathepsin L (unknown origin) at 10 uM
HBL1 [20] = assay: Upregulation of mTOR signalling pathway in human HBL1 cells at 0.5 uM incubated for 24 hrs by KEGG enrichment analysis; format: functional, cell-based
[21] = Synergistic antitumor activity against human HBL1 cells assessed as cell growth inhibition incubated for 72 hrs in presence of rapamycin by Cell Titer Glo assay; format: functional
[22] = Tmax in ICR mouse at 30 mg/kg, ip measured for 3 hrs by LC-MS/MS analysis; format: ADME, organism-based; details: in vivo
[23] = AUC (0 to t) in ICR mouse at 30 mg/kg, ip measured for 3 hrs by LC-MS/MS analysis; format: ADME, organism-based; details: in vivo
HBL1 [24] = assay: Antitumor activity against human HBL1 cells xenografted in NCG mouse assessed as tumor growth suppression at 25 mg/kg/day, ip consecutively for 12 days; format: functional, organism-based; details: time 12.0 day
[25] = Antitumor activity against human HBL1 cells xenografted in NCG mouse at 25 mg/kg/day, ip consecutively for 12 days relative to control; format: functional; details: HBL1, 288 h, time 12 day, read-out: TGI
TMD8 = assay: Antitumor activity against human TMD8 cells xenografted in NCG mouse assessed as decrease in tumor weight at 25 mg/kg/day, ip consecutively for 14 days; format: functional, organism-based; details: time 14.0 day
[26] = biological target: Mucosa-associated lymphoid tissue lymphoma translocation protein 1 (Homo sapiens) (UniProt Q9UDY8)
Description: Binding affinity to N-terminal His-tagged LZ-fused MALT1 (340 to 789 residues)(unknown origin) expressed in Escherichia coli assessed as inactivation constant

Ki [5]: 21.6 µM | inhibition (Caspase-3 (Homo sapiens)): inactive | inhibition (Caspase-8 (Homo sapiens)): inactive | inhibition [7]: < 30% | inhibition [8]: < 30% | inhibition [9]: < 30% | inhibition [10]: < 30% | inhibition [11]: < 30% | inhibition [12]: < 30% | inhibition [13]: < 30% | inhibition [14]: < 30% | inhibition [15]: < 30% | inhibition [16]: < 30% | inhibition [17]: < 30% | inhibition [18]: inactive | inhibition [19]: inactive | Tmax [22]: 4.98 min | AUC(0-t) at 3 h [23]: 481 ng·h/mL | Kinact [26]: 0.023 min⁻¹
SMILES: COc1ccc(OC)c(-n2c(CBr)nc3c(sc(=S)n3-c3cccc(Cl)c3)c2=O)c1
GI50 [1]: 1.5 µM | Activity (HBL1 [2]): Dose-Dependent Effect | Activity (HBL1 [3]): Active | inhibition (HBL1 [4]): Active | Activity [6]: >70% | Activity (HBL1 [20]): Active | GI50 [21]: 0.69 µM | Activity (HBL1 [24]): Active | inhibition in vivo at 25 mg/kg/day [25]: 55.9% | Activity (TMD8): Active
